Experimental data taken from patent US12018280B2, “Method for freezing aggregates of pluripotent stem cell-derived cardiomyocytes” (KYOTO UNIVERSITY, priority 2016, dated 2024).

How the values were obtained:
[1] = system: aggregate of GCaMP-cardiomyocytes derived from human iPS cells; assay: GCaMP fluorescence wave (intracellular calcium) drug response of cardiomyocyte aggregates after freeze-thaw; format: cell-based; settings: for change of TtP, CAD50, CAD70 and CAD90: 300 nM E4031, 1 μM astemizole, 1 μM nifekalant, 10 μM chromanole 293b, 30 μM mexiletine, 50 nM nifedipine; for change of PtP (beat interval): 300 nM isoproterenol, 1 μM propranol
From the text: A gene encoding GCaMP3, which is a calcium sensitive GFP that emits GFP fluorescence when bound to intracellular calcium, was introduced into a human iPS cell line (253G1) or a monkey iPS cell line (HT4M2) by AAVS1 region-specific gene transfer mediated by CRISPR. From the human GCaMP3-iPS cells, cardiomyocytes were induced in the same manner as in Section 1 to prepare an aggregate of cardiomyocytes that emitted GFP fluorescence in response to the change in intracellular calcium concentration during the beating. Also, from the monkey GCaMP-iPS cells, cardiomyocytes were induced using cytokines as described previously (Nat Biotechnol. 2007 September; 25(9): 1015-24. Epub 2007 Aug. 26) to prepare an aggregate of cardiomyocytes that emitted GFP fluorescence in response to the change in intracellular calcium concentration. Specifically, the monkey GCaMP-iPS cells were cultured for 24 hours with RPMI-B27 medium (Invitrogen) supplemented with human recombinant activin A (R&D Systems) (100 ng/ml), and then for four days with RPMI-B27 medium supplemented with human recombinant BMP4 (R&D Systems) (10 ng/ml). After the medium was replaced with RPMI-B27 medium without these cytokines, the cells were cultured for 21 days. The GCaMP-cardiomyocytes were dispersed into single cells with a trypsin/collagenase solution, and seeded on Sumilon PrimeSurface 96-well V-bottom plates at 1×10^5 cells/well to form uniform aggregates (700 to 1000 μm in diameter). The aggregates were used to analyze the change in intracellular calcium concentration wave, which synchronized the beating of cardiomyocytes.
derived from human iPS cells seven days after thawing to compare parameters of GCaMP fluorescence wave (change in intracellular calcium ion concentration) before and 10 minutes after the E4031 addition. Analyzed were time from the rise to the peak of fluorescence wave (TtP), and time from the rise to the peak of fluorescence wave and then to the decrease to 50% of the peak value (CaD50), to 70% of the peak value (CaD70), or to 90% of the peak value (CaD90) (FIG. 5-A).
E4031 was added to an aggregate of GCaMP-cardiomyocytes derived from human iPS cells seven days after thawing at 0, 0.3, 3, 30, or 300 nM to analyze the rate of change with E4031.

[2] = system: cardiomyocytes induced from pluripotent stem cells; settings: cardiomyocytes induced by the method described in WO 2015/182765; cited from earlier work
[3] = system: aggregate of GCaMP-cardiomyocytes derived from human iPS cells; assay: Cardiotoxicity of anthracycline in cardiomyocyte aggregates after freeze-thaw (GCaMP fluorescence); format: cell-based
Description: To detect cardiotoxicity of anthracycline anticancer agents, doxorubicin (10 μM) or daunorubicin (20 μM), was added for 24 hours to an aggregate of GCaMP-cardiomyocytes derived from human iPS cells seven days after thawing. The intracellular calcium wave was plotted with GCaMP fluorescence for an aggregate of cardiomyocytes without any agent (control) (FIGS. 8-A, 8-B), three days after the addition of doxorubicin (FIG. 8-C), or three days after the addition of daunorubicin (FIG. 8-D).
The change in parameters of GCaMP fluorescence wave was analyzed with the addition of doxorubicin (10 μM) or daunorubicin (20 μM) (FIGS. 9-A, 9-B).

[4] = doxorubicin 10 μM or daunorubicin 20 μM
[5] = 50 μM ryanodine, seven days after thawing

Cc1cccc(CCN2CCC(C(=O)c3ccc(NS(C)(=O)=O)cc3)CC2)n1 [E4031]
change of TtP, CAD50, CAD70 and CAD90 ([1]; seven days after thawing): extended | extension of all GCaMP fluorescence wave parameters (TtP, CaD50, CaD70, CaD90) ([1]; 300 nM, 10 minutes after addition vs before, aggregate seven days after thawing): around 40% | concentration at or above which TtP, CAD50, CAD70 and CAD90 were extended in a concentration-dependent manner ([1]; tested at 0, 0.3, 3, 30, 300 nM, seven days after thawing): ≥ 3 nM | effect on action potential [2]: prolongation of action potential

COc1ccc(CCN2CCC(Nc3nc4ccccc4n3Cc3ccc(F)cc3)CC2)cc1 [astemizole]
change of TtP, CAD50, CAD70 and CAD90 ([1]; seven days after thawing): extended

CCS(=O)(=O)N(C)[C@H]1c2cc(C#N)ccc2OC(C)(C)[C@@H]1O [chromanole 293b]
change of TtP, CAD50, CAD70 and CAD90 ([1]; seven days after thawing): extended | effect on action potential [2]: prolongation of action potential

COc1cccc2c1C(=O)c1c(O)c3c(c(O)c1C2=O)C[C@@](O)(C(C)=O)C[C@@H]3O[C@H]1C[C@H](N)[C@H](O)[C@H](C)O1 [daunorubicin]
amplitude of GCaMP fluorescence wave [3, 4]: tended to decrease significantly | change of PtP [3, 4]: significantly decreased | change of TtP and CAD [3, 4]: not significantly changed | intracellular calcium wave findings (cardiotoxicity) ([3]; doxorubicin 10 μM or daunorubicin 20 μM added for 24 hours, three days after the addition): short PtP, tachycardia, variable heartbeat interval, and arrhythmia

CC(C)NCC(O)c1ccc(O)c(O)c1 (centres unmarked) [isoproterenol]
change of PtP (beat interval) [1, 5]: decreased PtP

Cc1cccc(C)c1OCC(C)N (centres unmarked) [mexiletine]
change of TtP, CAD50, CAD70 and CAD90 ([1]; seven days after thawing): extended

Cn1c(NCCN(CCO)CCCc2ccc([N+](=O)[O-])cc2)cc(=O)n(C)c1=O [nifekalant]
change of TtP, CAD50, CAD70 and CAD90 ([1]; seven days after thawing): extended

CC(C)NCC(O)COc1cccc2ccccc12 (centres unmarked) [propranol]
change of PtP (beat interval) [1, 5]: increased PtP

ryanodine
change of PtP (beat interval) [1, 5]: increased PtP | peak value of GCaMP fluorescence (PeakValue, intracellular calcium increase) [1, 5]: decreased
